Measurements reported in article PMC7413254 (Nature Communications, 2020).
Like-named read-outs stand apart in the source and are kept apart here.

Tests used:
non-expressing oocytes [1] = assay: cells; type: cell-based, Xenopus laevis; conditions: Xenopus laevis, total [3H]CQ transport; for inhibition at 500 µM: [test solute] = 0.5 mM; for inhibition at 1000 µM: [test solute] = 1 mM; for inhibition at 2000 µM: [test solute] = 2 mM
In short: (§1)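 Radioactivity accumulated per oocyte, read by liquid scintillation after 10% SDS lysis, served as the uptake measure. Incubations ran 1.5 h at 27.5 °C in ND96 at pH 5.5, matching digestive-vacuole acidity.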

non-expressing oocytes [2] = type: cell-based, Xenopus laevis; conditions: total [3H]CQ transport; for Uptake of [3H]CQ (% non-expressing oocyte control), trans-stimulation: non-expressing oocytes, normalised to the oocyte type control; for Uptake of [3H]CQ (% PfCRTDd2 control), trans-stimulation, non-expressing oocytes: mean ± SEM, SEM
In short: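 Oocytes (ten per treatment, ≥4 independent frogs/days) were preloaded by injecting VF-6 in 25 nL ND96 at pH 5.0, 5.5, 6.0 or 7.0, or Na^+-free choline buffer, then uptake run 1.5 h, 27.5 °C, ND96 pH 5.5 by default. Internal concentrations assumed ~400 nL oocyte volume.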

PfCRT^Ecu1110 = PfCRT^Ecu1110 (Plasmodium falciparum, UniProt Q9N623, A220S/I356L/K76T/N326D); assay: [3H]CQ uptake into Xenopus oocytes, cis-inhibition by unlabelled solute; type: cell-based
Sequence of PfCRT^Ecu1110 (Q9N623 whole entry A220S/I356L/K76T/N326D): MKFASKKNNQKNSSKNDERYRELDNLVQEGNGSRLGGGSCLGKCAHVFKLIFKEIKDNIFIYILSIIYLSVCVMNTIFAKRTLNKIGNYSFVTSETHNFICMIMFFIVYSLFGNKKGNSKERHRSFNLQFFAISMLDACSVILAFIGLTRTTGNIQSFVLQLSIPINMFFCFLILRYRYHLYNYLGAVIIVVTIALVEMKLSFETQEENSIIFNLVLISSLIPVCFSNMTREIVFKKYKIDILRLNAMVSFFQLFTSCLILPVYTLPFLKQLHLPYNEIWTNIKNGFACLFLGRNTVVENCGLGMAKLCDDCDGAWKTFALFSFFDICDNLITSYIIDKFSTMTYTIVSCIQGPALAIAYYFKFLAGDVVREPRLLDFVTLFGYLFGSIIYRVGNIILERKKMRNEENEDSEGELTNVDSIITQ
In short: as §1

PfCRT^Dd2 = PfCRT^Dd2 (Plasmodium falciparum, UniProt Q9N623, A220S/I356T/K76T/M74I/N326S/N75E/Q271E/R371I); assay: as above; type: cell-based
Sequence of PfCRT^Dd2 (Q9N623 whole entry A220S/I356T/K76T/M74I/N326S/N75E/Q271E/R371I): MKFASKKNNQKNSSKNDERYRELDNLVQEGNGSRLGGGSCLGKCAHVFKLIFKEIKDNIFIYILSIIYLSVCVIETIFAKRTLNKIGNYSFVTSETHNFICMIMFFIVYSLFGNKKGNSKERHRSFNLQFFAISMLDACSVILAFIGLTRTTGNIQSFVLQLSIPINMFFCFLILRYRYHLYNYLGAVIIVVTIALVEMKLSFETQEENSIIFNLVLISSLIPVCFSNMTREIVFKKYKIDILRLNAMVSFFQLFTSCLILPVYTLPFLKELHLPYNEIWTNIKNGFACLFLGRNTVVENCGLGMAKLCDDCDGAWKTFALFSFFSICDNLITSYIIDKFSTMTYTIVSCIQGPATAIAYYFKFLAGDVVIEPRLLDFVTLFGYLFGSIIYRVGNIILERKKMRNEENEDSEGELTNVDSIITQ
In short: as §1

[3] = Oocyte, mean ± SEM, SEM, read-out: Uptake of [3H]CQ (% PfCRTDd2 control), cis-inhibition, non-expressing oocytes
[4] = non-expressing oocytes, normalised to the oocyte type control, read-out: Uptake of [3H]CQ (% non-expressing oocyte control), cis-inhibition
[5] = read-out: PfCRT-mediated [3H]CQ transport, cis-inhibition (% PfCRTEcu1110 control)
[6] = read-out: Uptake of [3H]CQ (% PfCRTDd2 control), cis-inhibition, PfCRTEcu1110, SEM
[7] = read-out: Uptake of [3H]CQ (% PfCRTEcu1110 control), cis-inhibition
[8] = read-out: [3H]CQ transport (% PfCRTEcu1110 control), cis-inhibition, PfCRTEcu1110, SEM
[9] = read-out: PfCRT-mediated [3H]CQ transport, cis-inhibition (% PfCRTDd2 control)
[10] = read-out: Uptake of [3H]CQ (% PfCRTDd2 control), cis-inhibition
[11] = read-out: Uptake of [3H]CQ (% PfCRTDd2 control), cis-inhibition, PfCRTDd2, SEM

Question: Which results are given for NC(=O)CC[C@H](N)C(=O)O [L-glutamine]?
Answer: inhibition at 500 µM (non-expressing oocytes [1]; [3]): 3.2 ± 0.07%; inhibition at 1000 µM (non-expressing oocytes [1]; [3]): 2.7 ± 0.05%; inhibition at 2000 µM (non-expressing oocytes [1]; [3]): 2.2 ± 0.03%; inhibition at 500 µM (non-expressing oocytes [1]; [4]): 99 ± 3.2%; inhibition at 1000 µM (non-expressing oocytes [1]; [4]): 100 ± 6.3%; inhibition at 2000 µM (non-expressing oocytes [1]; [4]): 98 ± 3.5%; Uptake of [3H]CQ (% non-expressing oocyte control), trans-stimulation (non-expressing oocytes [2]; [test solute]i = 5 mM): 100 ± 3.2 % non-expressing oocyte control; Uptake of [3H]CQ (% non-expressing oocyte control), trans-stimulation (non-expressing oocytes [2]; [test solute]i = 45 mM (30 mM for some solutes due to solubility)): 98 ± 2.2 % non-expressing oocyte control; Uptake of [3H]CQ (% PfCRTDd2 control), trans-stimulation, non-expressing oocytes (non-expressing oocytes [2]; [test solute]i = 5 mM (intracellular)): 2.7 ± 0.07 % PfCRTDd2 control; Uptake of [3H]CQ (% PfCRTDd2 control), trans-stimulation, non-expressing oocytes (non-expressing oocytes [2]; [test solute]i = 45 mM (intracellular; 30 mM for some solutes due to solubility)): 2.7 ± 0.05 % PfCRTDd2 control; inhibition at 1000 µM (PfCRT^Ecu1110; [5]): 95 ± 3.5%; inhibition at 2000 µM (PfCRT^Ecu1110; [5]): 96 ± 6.2%; inhibition at 500 µM (PfCRT^Ecu1110; [6]): 32 ± 0.4%; inhibition at 1000 µM (PfCRT^Ecu1110; [6]): 32 ± 1.4%; inhibition at 2000 µM (PfCRT^Ecu1110; [6]): 32 ± 1.1%; inhibition at 500 µM (PfCRT^Ecu1110; [7]): 98 ± 6.9%; inhibition at 1000 µM (PfCRT^Ecu1110; [7]): 97 ± 6.4%; inhibition at 2000 µM (PfCRT^Ecu1110; [7]): 99 ± 6.3%; inhibition at 500 µM (PfCRT^Ecu1110; [8]): 29 ± 1.2%; inhibition at 1000 µM (PfCRT^Ecu1110; [8]): 29 ± 0.2%; inhibition at 2000 µM (PfCRT^Ecu1110; [8]): 29 ± 0.1%; inhibition at 500 µM (PfCRT^Dd2; [9]): 98 ± 2.8%; inhibition at 1000 µM (PfCRT^Dd2; [9]): 98 ± 3.6%; inhibition at 2000 µM (PfCRT^Dd2; [9]): 95 ± 5.5%; inhibition at 500 µM (PfCRT^Dd2; [10]): 100 ± 4.9%; inhibition at 1000 µM (PfCRT^Dd2; [10]): 100 ± 5.2%; inhibition at 500 µM (PfCRT^Dd2; [11]): 100 ± 4.9%; inhibition at 1000 µM (PfCRT^Dd2; [11]): 100 ± 5.2%; inhibition at 2000 µM (PfCRT^Dd2; [11]): 97 ± 8.3%; inhibition at 500 µM (PfCRT^Dd2; read-out: [3H]CQ transport (% PfCRTDd2 control), cis-inhibition, PfCRTDd2, SEM): 98 ± 2.8%
